Laboratory results from the kinase profiling compilation of Christmann-Franck et al. (2016).

What was measured:
Test in all cases: radiometric filter-binding kinase assay, Kinase HotSpot
Details in all cases: compound 0.5 µM; ATP 10 µM
FGFR3 (human) = FGFR3 (human) (UniProt P22607)
MAPKAPK2 (human) = MAPKAPK2 (human) (UniProt P49137)
PDGFRB (human) = PDGFRB (human) (UniProt P09619)
CDK2 CCNA2 (human) = CDK2 CCNA2 (human) (UniProt P24941+P20248)
STK24 (human) = STK24 (human) (UniProt Q9Y6E0)
FES (human) = FES (human) (UniProt P07332)
FGR (human) = FGR (human) (UniProt P09769)
RIPK2 (human) = RIPK2 (human) (UniProt O43353)
CAMKK2 (human) = CAMKK2 (human) (UniProt Q96RR4)
CSNK2A1 (human) = CSNK2A1 (human) (UniProt P68400)
EPHA6 (human) = EPHA6 (human) (UniProt Q9UF33)
KIT (human) = KIT (human) (UniProt P10721)
SIK2 (human) = SIK2 (human) (UniProt Q9H0K1)
STK4 (human) = STK4 (human) (UniProt Q13043)
KDR (human) = KDR (human) (UniProt P35968)
MST1R (human) = MST1R (human) (UniProt Q04912)
PIM2 (human) = PIM2 (human) (UniProt Q9P1W9)
NEK3 (human) = NEK3 (human) (UniProt P51956)
PRKD1 (human) = PRKD1 (human) (UniProt Q15139)
MAP3K7 TAB1 (human) = MAP3K7 TAB1 (human) (UniProt O43318+Q15750)
HIPK2 (human) = HIPK2 (human) (UniProt Q9H2X6)
SGK2 (human) = SGK2 (human) (UniProt Q9HBY8)
TAOK3 (human) = TAOK3 (human) (UniProt Q9H2K8)
DYRK1B (human) = DYRK1B (human) (UniProt Q9Y463)
STK16 (human) = STK16 (human) (UniProt O75716)
MAP4K4 (human) = MAP4K4 (human) (UniProt O95819)
CLK4 (human) = CLK4 (human) (UniProt Q9HAZ1)
ACVR1 (human) = ACVR1 (human) (UniProt Q04771)
OXSR1 (human) = OXSR1 (human) (UniProt O95747)
ABL2 (human) = ABL2 (human) (UniProt P42684)
[1] = biological target: TYK2 JH1 catalytic (human) (UniProt P29597)
SYK (human) = SYK (human) (UniProt P43405)
PBK (human) = PBK (human) (UniProt Q96KB5)
ROCK1 (human) = ROCK1 (human) (UniProt Q13464)
TTK (human) = TTK (human) (UniProt P33981)
NUAK2 (human) = NUAK2 (human) (UniProt Q9H093)
AKT2 (human) = AKT2 (human) (UniProt P31751)
EPHA8 (human) = EPHA8 (human) (UniProt P29322)
IGF1R (human) = IGF1R (human) (UniProt P08069)
PTK2 (human) = PTK2 (human) (UniProt Q05397)
NEK6 (human) = NEK6 (human) (UniProt Q9HC98)
PRKCA (human) = PRKCA (human) (UniProt P17252)

Sequence of IGF1R (human) (P08069 whole entry, looked up): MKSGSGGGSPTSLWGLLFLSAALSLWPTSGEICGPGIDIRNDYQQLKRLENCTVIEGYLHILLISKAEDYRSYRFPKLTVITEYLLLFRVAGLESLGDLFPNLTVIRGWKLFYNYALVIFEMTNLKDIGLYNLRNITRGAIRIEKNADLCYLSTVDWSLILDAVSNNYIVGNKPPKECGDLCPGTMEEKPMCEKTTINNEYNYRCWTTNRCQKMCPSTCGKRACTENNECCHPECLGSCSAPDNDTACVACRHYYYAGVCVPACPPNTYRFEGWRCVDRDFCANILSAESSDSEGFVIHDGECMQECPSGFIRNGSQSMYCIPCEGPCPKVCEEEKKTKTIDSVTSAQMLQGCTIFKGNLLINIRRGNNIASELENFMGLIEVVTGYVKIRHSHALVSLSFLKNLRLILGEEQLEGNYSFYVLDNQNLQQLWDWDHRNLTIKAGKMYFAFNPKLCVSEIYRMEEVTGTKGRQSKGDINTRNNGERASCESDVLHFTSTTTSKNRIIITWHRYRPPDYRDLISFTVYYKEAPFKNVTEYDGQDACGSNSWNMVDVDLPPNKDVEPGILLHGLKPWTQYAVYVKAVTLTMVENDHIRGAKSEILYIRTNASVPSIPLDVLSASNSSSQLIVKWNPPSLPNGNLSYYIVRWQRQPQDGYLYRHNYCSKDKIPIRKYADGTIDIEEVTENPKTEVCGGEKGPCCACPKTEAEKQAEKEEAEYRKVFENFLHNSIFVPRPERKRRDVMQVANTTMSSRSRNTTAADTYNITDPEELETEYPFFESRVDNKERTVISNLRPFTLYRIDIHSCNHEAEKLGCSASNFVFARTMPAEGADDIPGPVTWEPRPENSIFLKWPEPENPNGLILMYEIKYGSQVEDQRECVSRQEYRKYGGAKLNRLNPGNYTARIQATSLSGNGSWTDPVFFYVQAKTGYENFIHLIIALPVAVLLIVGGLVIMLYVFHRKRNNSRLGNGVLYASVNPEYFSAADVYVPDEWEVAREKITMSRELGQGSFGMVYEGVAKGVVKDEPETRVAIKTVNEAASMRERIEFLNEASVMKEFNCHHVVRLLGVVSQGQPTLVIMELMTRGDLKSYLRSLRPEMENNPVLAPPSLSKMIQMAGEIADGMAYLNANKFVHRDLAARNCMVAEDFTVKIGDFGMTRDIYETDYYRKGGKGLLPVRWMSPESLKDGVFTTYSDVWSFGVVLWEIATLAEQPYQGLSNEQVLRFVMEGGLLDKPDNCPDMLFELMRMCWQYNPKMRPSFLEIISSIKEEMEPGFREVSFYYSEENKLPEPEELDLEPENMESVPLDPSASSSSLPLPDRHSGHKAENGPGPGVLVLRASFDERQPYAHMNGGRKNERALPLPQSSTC
Sequence of DYRK1B (human) (Q9Y463 whole entry, looked up): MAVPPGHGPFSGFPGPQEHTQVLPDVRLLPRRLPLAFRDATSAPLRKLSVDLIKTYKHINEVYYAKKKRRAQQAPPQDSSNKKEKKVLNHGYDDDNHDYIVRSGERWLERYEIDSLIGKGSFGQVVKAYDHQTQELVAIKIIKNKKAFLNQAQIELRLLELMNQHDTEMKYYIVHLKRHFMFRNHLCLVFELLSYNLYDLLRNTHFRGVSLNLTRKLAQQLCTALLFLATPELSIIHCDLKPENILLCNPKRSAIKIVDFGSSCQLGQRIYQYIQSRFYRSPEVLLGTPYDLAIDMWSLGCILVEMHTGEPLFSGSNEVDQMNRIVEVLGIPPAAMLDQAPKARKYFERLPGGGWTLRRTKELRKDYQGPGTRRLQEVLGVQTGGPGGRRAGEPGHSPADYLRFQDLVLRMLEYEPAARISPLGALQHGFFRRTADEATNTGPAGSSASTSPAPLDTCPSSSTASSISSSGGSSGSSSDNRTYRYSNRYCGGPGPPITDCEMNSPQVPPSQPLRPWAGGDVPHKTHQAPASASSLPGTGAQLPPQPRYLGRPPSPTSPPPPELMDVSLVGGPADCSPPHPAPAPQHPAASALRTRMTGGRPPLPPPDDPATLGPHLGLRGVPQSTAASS
Sequence of CDK2 CCNA2 (human) (P20248 whole entry, looked up, other chains not shown): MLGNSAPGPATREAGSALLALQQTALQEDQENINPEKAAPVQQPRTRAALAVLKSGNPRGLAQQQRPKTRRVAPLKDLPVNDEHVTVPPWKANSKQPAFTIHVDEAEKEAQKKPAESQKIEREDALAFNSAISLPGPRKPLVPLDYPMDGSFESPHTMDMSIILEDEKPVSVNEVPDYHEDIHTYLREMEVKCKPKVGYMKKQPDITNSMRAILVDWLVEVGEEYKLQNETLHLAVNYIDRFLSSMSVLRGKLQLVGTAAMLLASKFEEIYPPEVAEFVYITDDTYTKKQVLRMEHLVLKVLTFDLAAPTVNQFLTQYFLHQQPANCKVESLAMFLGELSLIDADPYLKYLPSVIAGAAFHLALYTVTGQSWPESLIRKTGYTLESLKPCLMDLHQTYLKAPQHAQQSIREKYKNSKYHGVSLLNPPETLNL
Sequence of NEK6 (human) (Q9HC98 whole entry, looked up): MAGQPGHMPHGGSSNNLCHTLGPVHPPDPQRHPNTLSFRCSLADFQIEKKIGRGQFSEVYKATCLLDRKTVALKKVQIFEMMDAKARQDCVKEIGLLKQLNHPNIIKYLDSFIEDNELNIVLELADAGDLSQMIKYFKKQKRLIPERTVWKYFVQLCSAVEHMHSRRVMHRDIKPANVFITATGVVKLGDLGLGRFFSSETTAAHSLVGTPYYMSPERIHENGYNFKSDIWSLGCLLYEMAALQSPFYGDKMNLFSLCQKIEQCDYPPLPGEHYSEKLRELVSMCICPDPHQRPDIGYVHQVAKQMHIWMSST
Sequence of STK4 (human) (Q13043 whole entry, looked up): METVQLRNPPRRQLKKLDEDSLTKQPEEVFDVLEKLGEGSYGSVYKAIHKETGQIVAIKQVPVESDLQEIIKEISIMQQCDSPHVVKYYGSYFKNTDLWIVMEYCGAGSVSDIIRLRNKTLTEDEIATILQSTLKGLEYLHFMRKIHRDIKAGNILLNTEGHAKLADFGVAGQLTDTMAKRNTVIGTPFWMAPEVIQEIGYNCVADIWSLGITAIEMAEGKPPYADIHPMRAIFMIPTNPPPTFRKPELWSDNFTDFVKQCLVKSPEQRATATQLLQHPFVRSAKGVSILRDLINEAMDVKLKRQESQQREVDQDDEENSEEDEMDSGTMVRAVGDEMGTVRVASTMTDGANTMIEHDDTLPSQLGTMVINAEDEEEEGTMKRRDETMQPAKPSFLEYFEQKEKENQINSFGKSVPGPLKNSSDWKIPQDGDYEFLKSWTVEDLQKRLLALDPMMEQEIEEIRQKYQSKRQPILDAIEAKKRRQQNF
Sequence of AKT2 (human) (P31751 whole entry, looked up): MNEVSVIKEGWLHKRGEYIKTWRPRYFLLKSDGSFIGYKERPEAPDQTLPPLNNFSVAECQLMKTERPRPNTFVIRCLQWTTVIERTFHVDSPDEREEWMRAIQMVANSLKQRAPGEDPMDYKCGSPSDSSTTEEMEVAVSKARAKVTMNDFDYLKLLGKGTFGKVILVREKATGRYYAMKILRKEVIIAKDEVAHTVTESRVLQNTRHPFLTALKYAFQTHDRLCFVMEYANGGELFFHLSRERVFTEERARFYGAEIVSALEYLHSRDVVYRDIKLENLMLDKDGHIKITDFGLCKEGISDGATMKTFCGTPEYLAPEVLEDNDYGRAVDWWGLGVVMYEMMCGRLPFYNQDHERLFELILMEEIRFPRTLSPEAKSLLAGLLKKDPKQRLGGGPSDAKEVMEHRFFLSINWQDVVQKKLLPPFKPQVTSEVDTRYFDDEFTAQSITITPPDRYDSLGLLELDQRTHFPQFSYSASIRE
Sequence of PRKD1 (human) (Q15139 whole entry, looked up): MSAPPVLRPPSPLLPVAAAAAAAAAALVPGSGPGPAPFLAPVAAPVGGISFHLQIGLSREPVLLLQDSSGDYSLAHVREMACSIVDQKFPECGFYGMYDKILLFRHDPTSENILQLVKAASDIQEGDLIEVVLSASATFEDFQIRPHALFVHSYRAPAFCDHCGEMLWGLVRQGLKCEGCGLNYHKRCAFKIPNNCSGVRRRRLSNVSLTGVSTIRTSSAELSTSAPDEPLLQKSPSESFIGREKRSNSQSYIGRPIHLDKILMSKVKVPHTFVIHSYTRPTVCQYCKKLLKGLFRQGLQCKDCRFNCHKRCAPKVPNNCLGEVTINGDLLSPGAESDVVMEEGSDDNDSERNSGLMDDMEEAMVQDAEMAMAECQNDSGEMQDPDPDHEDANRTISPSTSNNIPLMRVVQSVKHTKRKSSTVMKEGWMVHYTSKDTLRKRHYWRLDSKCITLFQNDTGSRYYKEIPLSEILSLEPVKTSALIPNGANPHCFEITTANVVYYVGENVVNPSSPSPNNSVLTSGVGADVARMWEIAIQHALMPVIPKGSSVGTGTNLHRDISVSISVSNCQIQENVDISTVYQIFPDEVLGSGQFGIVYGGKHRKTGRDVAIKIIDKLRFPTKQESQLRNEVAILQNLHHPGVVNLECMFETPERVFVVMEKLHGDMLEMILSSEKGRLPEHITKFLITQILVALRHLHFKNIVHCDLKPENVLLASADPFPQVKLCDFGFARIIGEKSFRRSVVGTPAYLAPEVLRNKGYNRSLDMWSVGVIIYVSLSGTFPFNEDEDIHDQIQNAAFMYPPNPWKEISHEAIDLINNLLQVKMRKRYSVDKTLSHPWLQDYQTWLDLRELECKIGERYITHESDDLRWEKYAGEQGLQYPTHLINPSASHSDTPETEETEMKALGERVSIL
Sequence of PBK (human) (Q96KB5 whole entry, looked up): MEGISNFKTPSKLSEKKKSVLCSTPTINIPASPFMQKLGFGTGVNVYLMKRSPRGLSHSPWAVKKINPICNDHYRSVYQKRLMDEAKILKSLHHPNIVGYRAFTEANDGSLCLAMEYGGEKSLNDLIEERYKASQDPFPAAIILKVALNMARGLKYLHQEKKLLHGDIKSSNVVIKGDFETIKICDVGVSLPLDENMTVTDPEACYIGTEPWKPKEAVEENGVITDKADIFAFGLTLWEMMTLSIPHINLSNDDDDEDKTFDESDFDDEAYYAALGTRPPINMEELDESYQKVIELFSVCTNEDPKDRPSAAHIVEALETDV

`Oc1cccc(-c2nc(N3CCOCC3)c3oc4ncccc4c3n2)c1` gave a residual activity (FGFR3 (human)) of 101%, a residual activity (MAPKAPK2 (human)) of 97.8% and a residual activity (PDGFRB (human)) of 99.2%. For the same compound, the residual activity (CDK2 CCNA2 (human)) was 104%, the residual activity (STK24 (human)) was 100% and the residual activity (FES (human)) was 98.8%. It also gave a residual activity (FGR (human)) of 94.8%, a residual activity (RIPK2 (human)) of 87.4% and a residual activity (CAMKK2 (human)) of 79.8%. It also gave a residual activity (CSNK2A1 (human)) of 94.7%, a residual activity (EPHA6 (human)) of 79% and a residual activity (KIT (human)) of 88.9%. It also gave a residual activity (SIK2 (human)) of 98.9%, a residual activity (STK4 (human)) of 93.3% and a residual activity (KDR (human)) of 85.9%. It also gave a residual activity (MST1R (human)) of 94.3%, a residual activity (PIM2 (human)) of 96.9% and a residual activity (NEK3 (human)) of 92.9%. The residual activity (PRKD1 (human)) was 98.3%, the residual activity (MAP3K7 TAB1 (human)) was 97.4% and the residual activity (HIPK2 (human)) was 102%. It also gave a residual activity (SGK2 (human)) of 96.7%, a residual activity (TAOK3 (human)) of 86.8% and a residual activity (DYRK1B (human)) of 98.9%. For the same compound, the residual activity (STK16 (human)) was 91.7%, the residual activity (MAP4K4 (human)) was 91.4% and the residual activity (CLK4 (human)) was 81.5%. It also gave a residual activity (ACVR1 (human)) of 105%, a residual activity (OXSR1 (human)) of 93.2% and a residual activity (ABL2 (human)) of 94.9%. The residual activity [1] was 73.6%, the residual activity (SYK (human)) was 94.2% and the residual activity (PBK (human)) was 88.7%. The residual activity (ROCK1 (human)) was 94.9%, the residual activity (TTK (human)) was 93.3% and the residual activity (NUAK2 (human)) was 75.3%. For the same compound, the residual activity (AKT2 (human)) was 99.1%, the residual activity (EPHA8 (human)) was 93.9% and the residual activity (IGF1R (human)) was 97.1%. It also gave a residual activity (PTK2 (human)) of 93.5%, a residual activity (NEK6 (human)) of 106% and a residual activity (PRKCA (human)) of 103%.
In the case of `N#C/C(=C(/N)Sc1ccc(N)cc1)c1ccccc1C(F)(F)F`, the residual activity (FGFR3 (human)) is reported as 98.5%, the residual activity (MAPKAPK2 (human)) is reported as 103% and the residual activity (PDGFRB (human)) is reported as 103%. It also gave a residual activity (CDK2 CCNA2 (human)) of 95.9%, a residual activity (STK24 (human)) of 89.3% and a residual activity (FES (human)) of 98%. It also gave a residual activity (FGR (human)) of 101%, a residual activity (RIPK2 (human)) of 91% and a residual activity (CAMKK2 (human)) of 85.5%. The residual activity (CSNK2A1 (human)) was 97.9%, the residual activity (EPHA6 (human)) was 92.3% and the residual activity (KIT (human)) was 91.8%. For the same compound, the residual activity (SIK2 (human)) was 101%, the residual activity (STK4 (human)) was 89.7% and the residual activity (KDR (human)) was 94.4%. For the same compound, the residual activity (MST1R (human)) was 90.4%, the residual activity (PIM2 (human)) was 103% and the residual activity (NEK3 (human)) was 99.6%. For the same compound, the residual activity (PRKD1 (human)) was 103%, the residual activity (MAP3K7 TAB1 (human)) was 93.5% and the residual activity (HIPK2 (human)) was 115%. For the same compound, the residual activity (SGK2 (human)) was 99%, the residual activity (TAOK3 (human)) was 98.6% and the residual activity (DYRK1B (human)) was 99.6%. For the same compound, the residual activity (STK16 (human)) was 98.4%, the residual activity (MAP4K4 (human)) was 93.4% and the residual activity (CLK4 (human)) was 93.4%. It also gave a residual activity (ACVR1 (human)) of 101%, a residual activity (OXSR1 (human)) of 101% and a residual activity (ABL2 (human)) of 101%. It also gave a residual activity [1] of 102%, a residual activity (SYK (human)) of 99.3% and a residual activity (PBK (human)) of 95.3%. For the same compound, the residual activity (ROCK1 (human)) was 104%, the residual activity (TTK (human)) was 93.6% and the residual activity (NUAK2 (human)) was 75%. The residual activity (AKT2 (human)) was 102%, the residual activity (EPHA8 (human)) was 94.1% and the residual activity (IGF1R (human)) was 97.4%. It also gave a residual activity (PTK2 (human)) of 101%, a residual activity (NEK6 (human)) of 101% and a residual activity (PRKCA (human)) of 100%.
